In the oligonucleotide strings, read from the 5' end, every base follows the letter of its sugar. An asterisk marks phosphorothioate; unmarked linkages are phosphodiester. Other units and linkages are bracketed, terminal groups are in braces. A string of capitals states the bases alone. e = 2'-O-(2-methoxyethyl) (MOE); [5mC] = 5-methylcytosine; d = 2'-deoxy (DNA)
Key:
[1] = test system: B16-F10 cells; test: Cell cycle assay in B16-F10 cells; type: cell-based, mouse; conditions: 150 nM, 48 hours, relative to untreated control
[2] = test system: pGL3-Control luciferase reporter; test: pGL3-Control luciferase assay in HeLa cells (reporter without miRNA binding site); type: cell-based, human; conditions: for luciferase expression: 24 hours; for luciferase expression (% lucif. only control): pGL3-Control, 48 hours
Source text: In one embodiment, an expression system based on the pGL3-Control (Promega Corp., Madison Wis.) vector containing a CMV promoter controlling expression of a luciferase reporter sequence was used in transient transfections of HeLa cells with plasmids expressing miRNA or pri-miRNA mimics. To assess the ability of miRNA mimics to bind and regulate the expression of the luciferase reporter gene, two reporter plasmids were constructed: 1) a synthetic DNA fragment comprising two sites perfectly complementary to mir-143 were inserted into the pGL3-Control luciferase reporter vector, to create the pGL3-mir-143 sensor plasmid, and 2) a DNA fragment comprising the 3′-UTR of the LIM domain only 4 (LMO4) gene (predicted to be regulated by mir-143) was inserted into pGL3-Control to create pGL3-LMO4; this fragment was PCR-amplified using a primer beginning at position 1261 of the LMO4 sequence (GenBank Accession NM_006769.2, incorporated herein as SEQ ID: 809) and the downstream primer hybridizing to the poly-A tail. In each of these plasmids, the target site was placed downstream of the luciferase coding sequence and upstream of the polyadenylation signal in the 3′-UTR of the luciferase reporter vector. The unmodified pGL3-Control luciferase reporter vector was used as a control.
HeLa cells were routinely cultured and passaged as described, and on the day before transfection with expression or reporter plasmids, the HeLa cells were seeded onto 24-well plates 50,000 cells/well. Cells were transfected according to standard published procedures with various combinations of plasmids using 2 μg Lipofectamine™ 2000 Reagent (Invitrogen) per μg of plasmid DNA, or, when transfecting oligomeric compounds, 1.25 μg of Lipofectamine™ 2000 Reagent per 100 nM oligonucleotide or double-stranded RNA. The luciferase signal in each well was normalized to the Renilla luciferase (RL) activity produced from a co-transfected plasmid, pRL-CMV, which was transfected at 0.5 μg per well. Cells were treated at various dosages (4 nM, 20 nM, and 100 nM) with the following oligomeric compound mimics: 1) “ds-mir-143,” 2) “ds-Control,” 3) “pCR3-pri-mir-143,” or 4) “pri-mir-control,” as described supra. In accordance with methods described in Example 12, supra, a luciferase assay was performed 48-hours after transfection. Briefly, cells were lysed in passive lysis buffer (PLB; Promega), and 20 ul of the lysate was then assayed for RL activity using a Dual Luciferase Assay kit (Promega) according to the manufacturer's protocol. The results below are an average of three trials and are presented as percent pGL3-Control luciferase expression normalized to pRL-CMV expression (RL).
An expression system based on the pGL3-Control (Promega Corp., Madison Wis.) reporter vector and comprising predicted miRNA binding sites was used in transient transfections of HeLa cells with plasmids expressing oligomeric compounds mimicking miRNAs, pre-miRNAs or pri-miRNAs in order to assess the ability of these miRNA mimics to bind and regulate the expression of the luciferase reporter. The effect of increasing the copy number of the miRNA-binding site in the target was also tested by including multiple binding sites in artificial reporter constructs. It is understood that the presence of multiple miRNA-binding sites in a target can include binding sites for different miRNAs.
HeLa cells were routinely cultured and passaged as described. In some embodiments, HeLa cells were transfected with 0.05 μg of the relevant pGL3-sensor plasmid and 0.01 μg pRL-CMV plasmid. Additionally, in some embodiments, cells were treated at various dosages (11 nM, 33 nM, and 100 nM) with the following oligomeric compound mimics: 1) ds-mir-143, or 2) ds-Control as described. In accordance with methods described in Example 12, a luciferase assay was performed 24-hours after transfection. The results, shown in Tables 40 and 41, are an average of three trials. […]

328403 (antisense eA*eG*eG*e[5mC]*e[5mC]*dT*dA*dT*dT*d[5mC]*d[5mC]*dT*dG*dT*dA*eG*e[5mC]*eA*eA*eA) [compound 328403]
% cells in cell cycle phase G1 [1]: 111% | % cells in cell cycle phase G2/M [1]: 99% | % cells in cell cycle phase S [1]: 88% | % cells in cell cycle phase aneuploid [1]: 92% | % cells in cell cycle phase subG1 [1]: 112%

ds-mir-143: double-stranded RNA of ISIS 342199 hybridized to its perfect complement ISIS 342200 (sense UGAGAUGAAGCACUGUAGCUCA; antisense UGAGCUACAGUGCUUCAUCUCA; RNA, backbone not given here)
luciferase expression ([2]; Table 40, pGL3-Control, 11 nM): 90.7 percent untreated control | luciferase expression ([2]; Table 40, pGL3-Control, 33 nM): 94.2 percent untreated control | luciferase expression ([2]; Table 40, pGL3-Control, 100 nM): 72.5 percent untreated control | luciferase expression ([2]; Table 41, pGL3-Control, 11 nM): 110.2 percent untreated control | luciferase expression ([2]; Table 41, pGL3-Control, 33 nM): 124.3 percent untreated control | luciferase expression ([2]; Table 41, pGL3-Control, 100 nM): 92.3 percent untreated control | luciferase expression (% lucif. only control) ([2]; 4 nM): 101.5 % lucif. only control | luciferase expression (% lucif. only control) ([2]; 20 nM): 123.8 % lucif. only control | luciferase expression (% lucif. only control) ([2]; 100 nM): 131.8 % lucif. only control
